Measurements reported in patent publication US8846747B2, “Compounds and methods for altering lifespan of eukaryotic organisms” (University of Rochester, priority 2009, dated 2014).

Assays:
DeaD strain BB579 = test: yeast Death of Daughters (DeaD) lifespan assay, reversal of nicotinamide (NAM) lifespan shortening; format: cell-based, S. cerevisiae (yeast); details: Saccharomyces cerevisiae, BB579, read-out: C50 (concentration that yields half the maximal activity) by DeaD assay
Method: The C50 (50% maximal activity) is a measure of the efficacy of a compound as a LAC and is determined by quantifying the dose-response curve for each LAC by DeaD assay in the presence and absence of nicotinamide. The C50 is the concentration of LAC that yields half the maximal activity. Dose response curves will generally peak and then decline. The decline is most likely due to toxicity at higher LAC concentrations. The C50 is determined relative to the maximal lifespan extension (the peak value). C50 values are provided for C1-5.
The compounds listed in Table 1 of Example 3 were assessed for their anti-aging activities using the yeast Death of Daughters (DeaD) explicative lifespan assay. Specifically, the compounds were assessed for their capacity to reverse the lifespan shortening effect of exogenous nicotinamide (NAM), which is a known inhibitor of the anti-aging protein Sir2p (Anderson et al., 2003; Bitterman et al., 2002). These compounds were compared to the activities of known cluster 1 compounds, S3-5, and #3-11.
“Activity” here is defined herein as the fold improvement in DeaD lifespan in the presence of 0.75 mM NAM relative to lifespan in the absence of cluster 1 compounds, over a range of compound concentrations between 0.5 nm-1 μm. This “activity” value is a means of assessing the usefulness of a compound as a LAC. The assays were performed as follows. DeaD strain BB579 was grown overnight in a permissive (galactose-containing) medium to mid-log phase, and then diluted to an OD600 of 0.0001 in restrictive (glucose-containing) medium with 0.75 mM NAM and the compound to be tested. Cells were then incubated at 30° C. for 3 days, with shaking and OD600 measurement every 20 minutes. The OD600 reading after 60 hours in restrictive medium, normalized to the same measurement for the “no drug” control, was used as the number for comparison.
Five of the compounds with higher activity than S3-5 were selected for further study and were designated C1-1, C1-2, C1-3, C1-4, and C1-5 (see Table 2, Example 4). All data in FIGS. 1A(1)-(6) are from media containing 0.75 mM NAM. Note the different ranges of the X axes in FIGS. 1A(1)-(6)—very different C50 values for the compounds of the present invention compared the known C1 cluster compounds. […] All five had C50 values below 50 nM, while the C50 value for S3-5 was about 650 nM, and the C50 for S1-9 was about 350 nM.

[1] = system: strain FY839 (healthy wild-type); test: Toxicity of compounds by yeast growth assay; format: cell-based; details: FY839, inset in FIG. 2
Method: The toxicity of compounds C1-1, C1-2, C1-3, C1-4, and C1-5 in yeast was assessed by determining their effects on growth of a wild-type yeast strain. FIG. 2 is a graphical representation of the toxicity data. The yeast used was strain FY839 (healthy wild-type) growing in SCD. At 12 hours all were in log phase. […] This concentration is many-fold higher than the effective concentrations of these compounds as assessed by DeaD lifespan assays.

RAW 264.7 cells = test: LPS-induced TNF-α secretion from RAW 264.7 cells (ELISA); format: cell-based, murine; details: compound 1 micromolar, LPS 10 ng/ml for 6 hrs; FIG. 3
Method: FIG. 3. […] To obtain the data summarized in FIG. 3, RAW […] cells were incubated with Scrims (compounds of present invention) (1 uM), PI3K inhibitor positive control (LY-294002; 25 uM) or vehicle (DMSO) for 1 hr. LPS (10 ng/ml) was added to the medium. 6 hrs post LPS administration medium was collected and analyzed for TNFa levels using ELISA.
In vitro anti-inflammatory activity in RAW 264.7 cells (murine leukaemic monocyte macrophage cell line): Lipopolysaccharide (LPS)-induced secretion of cytokines from RAW cells is a recognized in vitro assay for anti-inflammatory drugs. The anti-inflammatory activities of C1-1, C1-2, C1-3, C1-4, and C1-5 in the RAW cell model. RAW cells exposed to LPS were incubated with each of the five molecules at 1 micromolar concentration. The PIK3 inhibitor LY-294002 was used at 25 micromolar as a positive control. […] LPS was administered at 10 ng/ml for 6-hrs. TNF-α levels were quantified by ELISA assay. Results are presented as % of control with standard deviations of three replicates.

[2] = system: mice exposed to cigarette smoke; test: cigarette smoke-induced inflammation of mouse lungs; format: in vivo; details: ip 5 mg/kg
Method: FIG. 4. […] To obtain the data summarized in FIG. 4, Mice were exposed to cigarette smoke or filtered air for 3 consecutive days. They were treated ip with vehicle or Cob 1-2 (5 mg/kg) in DMSO: 1 group was treated daily during smoke exposure period and 1 group was pre-treated with 2 doses per week during the week prior to the smoke exposure and daily during the smoke exposure. On day 4, mice were sacrificed. Their lungs were washed and BAL fluid was stained for Europhiles count. The lungs were homogenized for ELISA quantifying MCP-1 levels.
In vivo prevention of cigarette smoke-induced inflammation of mouse lungs: Exposing mice to cigarette smoke induces an acute inflammatory response in the lungs. Cigarette smoke-induced inflammation in the lungs was assessed by quantifying the ratio of macrophages to Europhiles in bronchoalveolar lavage fluid (BALF), and levels of pro-inflammatory markers such as MCP-1 in lung tissue (Yao H, Edirisinghe I, Rajendrasozhan S, Yang S R, Caito S, Adenuga D, Rahman I. Cigarette smoke-mediated inflammatory and oxidative responses are strain-dependent in mice. Am. J. Physiol Lung Cell Mol Physiol 2008; 294: L1174-L1186.).

TNF-α-treated mice = test: TNF-α-induced vascular inflammation in mice (leukocyte rolling in mesenteric vessels); format: in vivo, mouse; details: ip 6 mg/kg once (1 hour) or twice (24 hours and 1 hour) prior to TNF-α; compared to TNF-α-treated control mice; FIG. 5
Method: FIG. 5. Graphical results showing in vivo reduction of TNF-α-induced vascular inflammation in mice. To obtain the data summarized in FIG. 5, mice (3 each group) were injected with vehicle or Cob 1-2 (ip, 6 mg/kg in DMSO). Two treatments were used: i) 1 dose an hour before TNFa and, ii) 2 doses (24 hrs and 1 hr before TNFa ). TNFa was administered ip (20 ug/kg). 3 hours post TNFa administration, mice were anesthetized, their mesentery was exposed and placed on an inverted fluorescent microscope stage. Lymphocyte velocities within veins was determined by analyzing video recordings
In vivo reduction of TNF-α-induced vascular inflammation in mice: The affects of drugs on vascular inflammation can be assessed by quantifying the rates of leukocytes rolling in mouse mesenteric vessels following intraperitoneal administration of TNF-α (Craig N. Morrell, Kenji Matsushita, and Charles J. Lowenstein. A Novel Inhibitor of N-Ethylmaleimide-Sensitive Factor Decreases Leukocyte Trafficking and Peritonitis. JPET 2005; 314:155-161). Vascular inflammation was induced in two groups of mice that were treated with C1-2 either once (1 hour) or twice (24 hours and 1 hour) prior to TNF-α administration.

CCC(=O)C1C(=O)CC(c2ccc(F)cc2)CC1=O (stereo not drawn) [SRI# 22790, 1,3-cyclohexanedione, 2-propanoyl-5-[4-fluorophenyl]-]
EC50 (DeaD strain BB579): < 50 nM
toxic effects on growth at concentrations below 1 μM [1]: little or no toxic effects on growth
reduction of secreted TNF-α relative to vehicle treated cells (RAW 264.7 cells): exhibited anti-inflammatory activity
total Europhiles count in BAL fluid ([2]; 3 days smoke exposure, FIG. 4A): lowered total Europhiles count to near background levels
MCP-1 levels in lungs ([2]; lung homogenate ELISA, FIG. 4B): decreased in a statistically significant fashion
leukocytes velocity in mesenteric vessels (TNF-α-treated mice): significantly increased leukocytes velocity
